In brackets after ≈: the same amount, converted by molar mass.
Key:
Pseudomonas aeruginosa [1] = test: Antimicrobial activity against Pseudomonas aeruginosa isolated from ICU patient by broth microdilution method; assay type: functional
Acinetobacter [2] = test: Antimicrobial activity against imipenem non-susceptible Acinetobacter assessed as intermediate isolate by broth microdilution method; assay type: functional
Enterobacteriaceae [3] = test: Antimicrobial activity against ceftazidime-susceptible Enterobacteriaceae assessed as resistant isolate by broth microdilution method; assay type: functional
Citrobacter [4] = test: Antimicrobial activity against Citrobacter with derepressed AmpC beta-lactamsae assessed as susceptible isolate by broth microdilution method; assay type: functional
Pseudomonas aeruginosa [5] = test: Antimicrobial activity against Pseudomonas aeruginosa isolated from non-ICU patient assessed as resistant isolate by broth microdilution method
Pseudomonas aeruginosa [6] = test: Antimicrobial activity against Ceftazidime susceptible Pseudomonas aeruginosa assessed as resistant isolate by broth microdilution method; assay type: functional
Pseudomonas aeruginosa [7] = test: Antimicrobial activity against Pseudomonas aeruginosa isolated from ICU patient assessed as susceptible isolate by broth microdilution method
Pseudomonas aeruginosa [8] = test: Antimicrobial activity against Pseudomonas aeruginosa isolated from non-ICU patient by broth microdilution method
Enterobacteriaceae [9] = test: Antimicrobial activity against Ceftazidime non-susceptible Enterobacteriaceae assessed as intermediate isolate by broth microdilution method; assay type: functional
Proteus mirabilis [10] = test: Antimicrobial activity against Non-ESBL Proteus mirabilis assessed as susceptible isolate by broth microdilution method; assay type: functional
Acinetobacter [11] = test: Antimicrobial activity against imipenem non-susceptible Acinetobacter assessed as resistant isolate by broth microdilution method; assay type: functional
Pseudomonas aeruginosa [12] = test: Antimicrobial activity against Pseudomonas aeruginosa isolated from patient by broth microdilution method
Acinetobacter [13] = test: Antimicrobial activity against imipenem non-susceptible Acinetobacter by broth microdilution method; assay type: functional
Pseudomonas aeruginosa [14] = test: Antimicrobial activity against imipenem susceptible Pseudomonas aeruginosa assessed as intermediate isolate by broth microdilution method; assay type: functional
Pseudomonas aeruginosa [15] = test: Antimicrobial activity against Ceftazidime non-susceptible Pseudomonas aeruginosa assessed as susceptible isolate by broth microdilution method; assay type: functional
Acinetobacter [16] = test: Antimicrobial activity against imipenem susceptible Acinetobacter by broth microdilution method; assay type: functional
Citrobacter [17] = test: Antimicrobial activity against Citrobacter with nonderepressed AmpC beta-lactamsae by broth microdilution method; assay type: functional
Pseudomonas aeruginosa [18] = test: Antimicrobial activity against Ceftazidime susceptible Pseudomonas aeruginosa by broth microdilution method; assay type: functional
Serratia marcescens [19] = test: Antimicrobial activity against Ceftazidime susceptible Serratia marcescens assessed as intermediate isolate by broth microdilution method; assay type: functional
Serratia marcescens [20] = test: Antimicrobial activity against Ceftazidime susceptible Serratia marcescens assessed as susceptible isolate by broth microdilution method; assay type: functional
Proteus mirabilis [21] = test: Antimicrobial activity against ESBL producing Proteus mirabilis assessed as susceptible isolate by broth microdilution method; assay type: functional
Escherichia coli [22] = test: Antimicrobial activity against ESBL producing Escherichia coli assessed as resistant isolate by broth microdilution method; assay type: functional
Pseudomonas aeruginosa [23] = test: Antimicrobial activity against imipenem non-susceptible Pseudomonas aeruginosa assessed as intermediate isolate by broth microdilution method; assay type: functional
Escherichia coli [24] = test: Antimicrobial activity against ESBL producing Escherichia coli by broth microdilution method; assay type: functional
Pseudomonas aeruginosa [25] = test: Antimicrobial activity against Ceftazidime susceptible Pseudomonas aeruginosa assessed as susceptible isolate by broth microdilution method; assay type: functional
Enterobacteriaceae [26] = test: Antimicrobial activity against Ceftazidime non-susceptible Enterobacteriaceae by broth microdilution method; assay type: functional
Pseudomonas aeruginosa [27] = test: Antimicrobial activity against Ceftazidime non-susceptible Pseudomonas aeruginosa assessed as resistant isolate by broth microdilution method; assay type: functional
Acinetobacter [28] = test: Antimicrobial activity against imipenem non-susceptible Acinetobacter assessed as susceptible isolate by broth microdilution method; assay type: functional
Klebsiella pneumoniae [29] = test: Antimicrobial activity against Non-ESBL Klebsiella pneumoniae assessed as susceptible isolate by broth microdilution method; assay type: functional
Pseudomonas aeruginosa [30] = test: Antimicrobial activity against Pseudomonas aeruginosa isolated from ICU patient assessed as resistant isolate by broth microdilution method
Pseudomonas aeruginosa [31] = test: Antimicrobial activity against imipenem non-susceptible Pseudomonas aeruginosa by broth microdilution method; assay type: functional
Escherichia coli [32] = test: Antimicrobial activity against Non-ESBL Escherichia coli assessed as susceptible isolate by broth microdilution method; assay type: functional
Pseudomonas aeruginosa [33] = test: Antimicrobial activity against Ceftazidime non-susceptible Pseudomonas aeruginosa assessed as intermediate isolate by broth microdilution method; assay type: functional
Pseudomonas aeruginosa [34] = test: Antimicrobial activity against imipenem non-susceptible Pseudomonas aeruginosa assessed as resistant isolate by broth microdilution method; assay type: functional
Escherichia coli [35] = test: Antimicrobial activity against ESBL producing Escherichia coli assessed as intermediate isolate by broth microdilution method; assay type: functional
Proteus mirabilis [36] = test: Antimicrobial activity against Non-ESBL Proteus mirabilis by broth microdilution method; assay type: functional
Acinetobacter [37] = test: Antimicrobial activity against imipenem susceptible Acinetobacter assessed as resistant isolate by broth microdilution method; assay type: functional
Proteus mirabilis [38] = test: Antimicrobial activity against ESBL producing Proteus mirabilis by broth microdilution method; assay type: functional
Citrobacter [39] = test: Antimicrobial activity against Citrobacter with derepressed AmpC beta-lactamsae assessed as intermediate isolate by broth microdilution method; assay type: functional
Pseudomonas aeruginosa [40] = test: Antimicrobial activity against Pseudomonas aeruginosa isolated from ICU patient assessed as intermediate isolate by broth microdilution method
Pseudomonas aeruginosa [41] = test: Antimicrobial activity against Ceftazidime susceptible Pseudomonas aeruginosa assessed as intermediate isolate by broth microdilution method; assay type: functional
Klebsiella pneumoniae [42] = test: Antimicrobial activity against ESBL producing Klebsiella pneumoniae by broth microdilution method; assay type: functional
Enterobacteriaceae [43] = test: Antimicrobial activity against ceftazidime-susceptible Enterobacteriaceae assessed as susceptible isolate by broth microdilution method; assay type: functional
Serratia marcescens [44] = test: Antimicrobial activity against Ceftazidime non-susceptible Serratia marcescens by broth microdilution method; assay type: functional
Klebsiella pneumoniae [45] = test: Antimicrobial activity against Non-ESBL Klebsiella pneumoniae by broth microdilution method; assay type: functional
Escherichia coli [46] = test: Antimicrobial activity against Non-ESBL Escherichia coli assessed as intermediate isolate by broth microdilution method; assay type: functional
Enterobacteriaceae [47] = test: Antimicrobial activity against Ceftazidime non-susceptible Enterobacteriaceae assessed as susceptible isolate by broth microdilution method; assay type: functional
Proteus mirabilis [48] = test: Antimicrobial activity against ESBL producing Proteus mirabilis assessed as intermediate isolate by broth microdilution method; assay type: functional
Pseudomonas aeruginosa [49] = test: Antimicrobial activity against imipenem susceptible Pseudomonas aeruginosa assessed as resistant isolate by broth microdilution method; assay type: functional
Klebsiella pneumoniae [50] = test: Antimicrobial activity against ESBL producing Klebsiella pneumoniae assessed as intermediate isolate by broth microdilution method; assay type: functional
Klebsiella pneumoniae [51] = test: Antimicrobial activity against ESBL producing Klebsiella pneumoniae assessed as resistant isolate by broth microdilution method; assay type: functional
Serratia marcescens [52] = test: Antimicrobial activity against Ceftazidime non-susceptible Serratia marcescens assessed as intermediate isolate by broth microdilution method; assay type: functional
Pseudomonas aeruginosa [53] = test: Antimicrobial activity against imipenem non-susceptible Pseudomonas aeruginosa assessed as susceptible isolate by broth microdilution method; assay type: functional
Enterobacteriaceae [54] = test: Antimicrobial activity against ceftazidime-susceptible Enterobacteriaceae assessed as intermediate isolate by broth microdilution method; assay type: functional
Serratia marcescens [55] = test: Antimicrobial activity against Ceftazidime non-susceptible Serratia marcescens assessed as susceptible isolate by broth microdilution method; assay type: functional
Citrobacter [56] = test: Antimicrobial activity against Citrobacter with nonderepressed AmpC beta-lactamsae assessed as intermediate isolate by broth microdilution method; assay type: functional
Acinetobacter [57] = test: Antimicrobial activity against imipenem susceptible Acinetobacter assessed as intermediate isolate by broth microdilution method; assay type: functional
Pseudomonas aeruginosa [58] = test: Antimicrobial activity against Pseudomonas aeruginosa isolated from non-ICU patient by broth microdilution method; assay type: functional
Proteus mirabilis [59] = test: Antimicrobial activity against Non-ESBL Proteus mirabilis assessed as intermediate isolate by broth microdilution method; assay type: functional
Acinetobacter [60] = test: Antimicrobial activity against imipenem susceptible Acinetobacter assessed as susceptible isolate by broth microdilution method; assay type: functional
Citrobacter [61] = test: Antimicrobial activity against Citrobacter with nonderepressed AmpC beta-lactamsae assessed as susceptible isolate by broth microdilution method; assay type: functional
Citrobacter [62] = test: Antimicrobial activity against Citrobacter with derepressed AmpC beta-lactamsae by broth microdilution method; assay type: functional
Klebsiella pneumoniae [63] = test: Antimicrobial activity against Non-ESBL Klebsiella pneumoniae assessed as intermediate isolate by broth microdilution method; assay type: functional
Klebsiella pneumoniae [64] = test: Antimicrobial activity against ESBL producing Klebsiella pneumoniae assessed as susceptible isolate by broth microdilution method; assay type: functional
Pseudomonas aeruginosa [65] = test: Antimicrobial activity against imipenem susceptible Pseudomonas aeruginosa assessed as susceptible isolate by broth microdilution method; assay type: functional
Escherichia coli [66] = test: Antimicrobial activity against ESBL producing Escherichia coli assessed as susceptible isolate by broth microdilution method; assay type: functional
Enterobacteriaceae [67] = test: Antimicrobial activity against Ceftazidime non-susceptible Enterobacteriaceae assessed as resistant isolate by broth microdilution method; assay type: functional

SMILES: CO/N=C(\C(=O)N[C@@H]1C(=O)N2C(C(=O)[O-])=C(C[N+]3(C)CCCC3)CS[C@H]12)c1csc(N)n1
- MIC50 (Pseudomonas aeruginosa [1]): 4 µg/mL (≈ 8.32 µM)
- MIC90 (Pseudomonas aeruginosa [1]): 16 µg/mL (≈ 33.3 µM)
- Activity (Acinetobacter [2]): 33.3%
- Activity (Enterobacteriaceae [3]): 0.1%
- Activity (Citrobacter [4]): 100%
- Activity (Pseudomonas aeruginosa [5]): 5.1%
- Activity (Pseudomonas aeruginosa [6]): 1%
- Activity (Pseudomonas aeruginosa [7]): 79.9%
- Activity (Pseudomonas aeruginosa [8]): 86.8%
- Activity (Enterobacteriaceae [9]): 5.6%
- Activity (Proteus mirabilis [10]): 99.7%
- Activity (Acinetobacter [11]): 64.7%
- Activity (Pseudomonas aeruginosa [12]): 8.2%
- MIC50 (Acinetobacter [13]): 32 µg/mL (≈ 66.6 µM)
- MIC90 (Acinetobacter [13]): > 32 µg/mL
- Activity (Pseudomonas aeruginosa [14]): 7%
- Activity (Pseudomonas aeruginosa [15]): 25.5%
- MIC50 (Acinetobacter [16]): 4 µg/mL (≈ 8.32 µM)
- MIC90 (Acinetobacter [16]): 32 µg/mL (≈ 66.6 µM)
- MIC50 (Citrobacter [17]): 0.03 µg/mL (≈ 0.0624 µM)
- MIC90 (Citrobacter [17]): 0.06 µg/mL (≈ 0.125 µM)
- MIC50 (Pseudomonas aeruginosa [18]): 2 µg/mL (≈ 4.16 µM)
- MIC90 (Pseudomonas aeruginosa [18]): 8 µg/mL (≈ 16.6 µM)
- Activity (Serratia marcescens [19]): 0%
- Activity (Serratia marcescens [20]): 100%
- Activity (Proteus mirabilis [21]): 100%
- Activity (Escherichia coli [22]): 56.7%
- Activity (Pseudomonas aeruginosa [23]): 16.9%
- MIC50 (Escherichia coli [24]): 32 µg/mL (≈ 66.6 µM)
- MIC90 (Escherichia coli [24]): > 32 µg/mL
- Activity (Pseudomonas aeruginosa [25]): 95.2%
- MIC50 (Enterobacteriaceae [26]): 2 µg/mL (≈ 4.16 µM)
- MIC90 (Enterobacteriaceae [26]): 32 µg/mL (≈ 66.6 µM)
- Activity (Pseudomonas aeruginosa [27]): 26.4%
- Activity (Acinetobacter [28]): 2%
- Activity (Klebsiella pneumoniae [29]): 99.7%
- Activity (Pseudomonas aeruginosa [30]): 6.5%
- MIC50 (Pseudomonas aeruginosa [31]): 8 µg/mL (≈ 16.6 µM)
- MIC90 (Pseudomonas aeruginosa [31]): 32 µg/mL (≈ 66.6 µM)
- Activity (Escherichia coli [32]): 99.8%
- Activity (Pseudomonas aeruginosa [33]): 48.2%
- Activity (Pseudomonas aeruginosa [34]): 10.6%
- Activity (Escherichia coli [35]): 3.3%
- MIC50 (Proteus mirabilis [36]): 0.03 µg/mL (≈ 0.0624 µM)
- MIC90 (Proteus mirabilis [36]): 0.06 µg/mL (≈ 0.125 µM)
- Activity (Acinetobacter [37]): 15.1%
- MIC (Proteus mirabilis [38]): 1 µg/mL (≈ 2.08 µM)
- Activity (Citrobacter [39]): 0%
- Activity (Pseudomonas aeruginosa [40]): 13.7%
- Activity (Pseudomonas aeruginosa [41]): 3.8%
- MIC50 (Klebsiella pneumoniae [42]): 8 µg/mL (≈ 16.6 µM)
- MIC90 (Klebsiella pneumoniae [42]): > 32 µg/mL
- Activity (Enterobacteriaceae [43]): 99.8%
- MIC50 (Serratia marcescens [44]): 4 µg/mL (≈ 8.32 µM)
- MIC90 (Serratia marcescens [44]): 16 µg/mL (≈ 33.3 µM)
- MIC50 (Klebsiella pneumoniae [45]): 0.03 µg/mL (≈ 0.0624 µM)
- MIC90 (Klebsiella pneumoniae [45]): 0.06 µg/mL (≈ 0.125 µM)
- Activity (Escherichia coli [46]): 0.1%
- Activity (Enterobacteriaceae [47]): 82.4%
- Activity (Proteus mirabilis [48]): 0%
- Activity (Pseudomonas aeruginosa [49]): 2.2%
- Activity (Klebsiella pneumoniae [50]): 2.3%
- Activity (Klebsiella pneumoniae [51]): 29.5%
- Activity (Serratia marcescens [52]): 10%
- Activity (Pseudomonas aeruginosa [53]): 72.5%
- Activity (Enterobacteriaceae [54]): 0%
- Activity (Serratia marcescens [55]): 80%
- Activity (Citrobacter [56]): 0.2%
- Activity (Acinetobacter [57]): 11.8%
- MIC50 (Pseudomonas aeruginosa [58]): 4 µg/mL (≈ 8.32 µM)
- MIC90 (Pseudomonas aeruginosa [58]): 16 µg/mL (≈ 33.3 µM)
- Activity (Proteus mirabilis [59]): 0.2%
- Activity (Acinetobacter [60]): 73.1%
- Activity (Citrobacter [61]): 99.6%
- MIC50 (Citrobacter [62]): 1 µg/mL (≈ 2.08 µM)
- MIC90 (Citrobacter [62]): 2 µg/mL (≈ 4.16 µM)
- Activity (Klebsiella pneumoniae [63]): 0.2%
- Activity (Klebsiella pneumoniae [64]): 68.2%
- Activity (Pseudomonas aeruginosa [65]): 90.7%
- Activity (Escherichia coli [66]): 40%
- Activity (Enterobacteriaceae [67]): 12%

— ChEMBL document CHEMBL1275550, “In vitro activity of doripenem, a carbapenem for the treatment of challenging infections caused by gram-negative bacteria, against recent clinical isolates from the United States” (2008)
